Source: ChEMBL document CHEMBL4476864, “Azapeptides as cd36 binding compounds” (2013)
The source made the active and inactive calls. No cut-off for these calls is given here. Starred links: 1 amine or outer side, 2 acyl side, 3 side chain; linkers in the order of their positions; H or OH if unused. Non-standard residues stand in square brackets, D forms with d. Residues, ends and D or L forms follow the SMILES beside them. azaTyr = O=C(N(Cc1ccc(O)cc1)N[*:1])[*:2]

Columns and labels:
[1] = system: Aorta; test: Inhibition of vascular sprouting in CD36-/- C57BL/6 mouse aortic rings exposed on day 4 to 6; type: functional, tissue-based
[2] = system: Mus musculus; test: Inhibition of choroidal neovascularization in CD36-/- C57BL/6 mouse model of FITC-conjugated dextran infusion following laser-induced posterior retinal injury administered in to vitreous tissue; type: functional, organism-based
[3] = system: Mus musculus; test: Inhibition of choroidal neovascularization in CD36+/+ C57BL/6 mouse model of FITC-conjugated dextran infusion following laser-induced posterior retinal injury administered in to vitreous tissue; type: functional
[4] = system: Aorta; test: Inhibition of vascular sprouting in CD36+/+ C57BL/6 mouse aortic rings exposed on day 4 to 6; type: functional, tissue-based

## C[C@H](NC(=O)[C@@H](Cc1c[nH]c2ccccc12)NC(=O)[C@@H](N)Cc1cnc[nH]1)C(=O)NN(Cc1ccc(O)cc1)C(=O)N[C@H](Cc1ccccc1)C(=O)N[C@@H](CCCCN)C(N)=O (H-H[dW]A[azaTyr][dF]K-NH2)
[1]
  inhibition: inactive
[2]
  inhibition: inactive
[3]
  inhibition (INH): >50%
[4]
  inhibition: Dose-dependent effect
